Assays:
[1] = test system: MCF-7 breast cancer cell line; assay: MTT anti-proliferative assay, MCF-7; assay type: cell-based; conditions: Homo sapiens, MCF7, 48 h, mean ± S.E.M.
Experimental: (§1) Toward this aim, the cells were treated with the synthesized compounds at different concentrations and were incubated for 48 h. In our evaluations, staurosporine (STU) was used as a reference drug. After the cells were washed, they were treated with MTT solution, and an ELISA reader assessed the absorption of the solution at a wavelength of 570 nm.
(§2) Finally, the resulting MTT crystals were dissolved at ambient temperature in acidified isopropanol (180 µL/well) with shaking, and the absorption was assessed at 570 nm utilizing ELISA.

[2] = test system: MDA-MB-231 breast cancer cell line; assay: MTT anti-proliferative assay, MDA-MB-231; assay type: cell-based; conditions: mean ± S.E.M.
Experimental: as §1, §2

[3] = test system: epithelial breast cell line MCF-10A; assay: MTT cytotoxicity assay, epithelial breast cells MCF-10A; assay type: cell-based; conditions: Homo sapiens, 48 h, mean ± S.E.M.
Experimental: as §1, §2

MCF-7 cells [4] = assay: Cell cycle analysis by flow cytometry (propidium iodide); assay type: cell-based; conditions: MCF-7, 5.73 µM, 24 h
Experimental: Based on the anti-proliferative activity results, we selected compound 4 to further explore and achieve insights into the mechanism responsible for the cytotoxicity of this class of compounds. Toward this aim, we assessed the effect of compound 4 on the cell cycle distribution of MCF-7 cells utilizing flow cytometry analysis. The cell cycle distribution analysis was evaluated after incubation of MCF-7 cells with compound 4 at 5.73 µM. […] Further, compound 4 induced a substantial diminution in the cellular population at the G2/M stage. As indicated in Figure 5a–c, the cellular populations of the G2/M and pre-G1 phases in the control cells were 16.99% and 2.12%, respectively, while the populations were altered to 6.81% and 31.66%, respectively, in the presence of compound 4 at 5.73 µM.
To assess the effect of compound 4 on the cell cycle of MCF-7 cells, we treated the MCF-7 cells with compound 4 and analyzed the cell cycle arrest at different stages as previously reported. […] After the cells were incubated with propidium iodide (5 mg/mL, Sigma, Ronkonkoma, NY, USA) and Rnase (10 mg/mL, Sigma, Ronkonkoma, NY, USA), cytofluorometry analysis was performed using FACS Calibur cytometer, and the results were analyzed utilizing Cell quest software (BD Bioscience, San Jose, CA, USA).

MCF-7 cells [5] = assay: Annexin V-FITC/PI dual staining (apoptosis and necrosis); assay type: cell-based; conditions: MCF-7, 5.73 µM, 24 h
Experimental: Our findings encouraged us to further explore the mechanistic insights accounting for the potent cytotoxicity and cell cycle arrest. To investigate whether the mode of action for the antiproliferative activity of compound 4 toward MCF-7 cells involves apoptosis and/or necrosis, we performed Annexin V- FITC/PI dual staining assay. To this end, we treated MCF-7 cells with compound 4 (5.73 µM) for 24h and assessed the programmed cell death at different stages utilizing the cytofluorometry analysis. […] Indeed, treatment with compound 4 increased apoptosis by 9 and 89 times at the early and late stages, respectively, compared to control cells.
To explore the effect of compound 4 on the programmed cell death mechanisms of MCF-7 cells, fluorescent Annexin V-FITC/ PI assay was performed using flow cytometry following a previously reported procedure. Briefly, MCF-7 cells (2 × 10^5) were treated with compound 4 at 5.73 µM concentration. After incubation for 24 h, the harvested cells were stained in the dark at 37 °C with Annexin V-FITC/ PI dye for 15 min. Cytofluorometry analysis was assessed by BD FACS Calibur (Becton and Dickinson, Heidelberg, Germany), and the BD cell Quest pro software was utilized to analyze the results.

human VEGFR-2/KDR = human VEGFR-2/KDR (Homo sapiens, UniProt P35968); assay: VEGFR-2 inhibitory activity (VEGFR-2/KDR ELISA kit)
human VEGFR-2/KDR, sequence (P35968 20-1356): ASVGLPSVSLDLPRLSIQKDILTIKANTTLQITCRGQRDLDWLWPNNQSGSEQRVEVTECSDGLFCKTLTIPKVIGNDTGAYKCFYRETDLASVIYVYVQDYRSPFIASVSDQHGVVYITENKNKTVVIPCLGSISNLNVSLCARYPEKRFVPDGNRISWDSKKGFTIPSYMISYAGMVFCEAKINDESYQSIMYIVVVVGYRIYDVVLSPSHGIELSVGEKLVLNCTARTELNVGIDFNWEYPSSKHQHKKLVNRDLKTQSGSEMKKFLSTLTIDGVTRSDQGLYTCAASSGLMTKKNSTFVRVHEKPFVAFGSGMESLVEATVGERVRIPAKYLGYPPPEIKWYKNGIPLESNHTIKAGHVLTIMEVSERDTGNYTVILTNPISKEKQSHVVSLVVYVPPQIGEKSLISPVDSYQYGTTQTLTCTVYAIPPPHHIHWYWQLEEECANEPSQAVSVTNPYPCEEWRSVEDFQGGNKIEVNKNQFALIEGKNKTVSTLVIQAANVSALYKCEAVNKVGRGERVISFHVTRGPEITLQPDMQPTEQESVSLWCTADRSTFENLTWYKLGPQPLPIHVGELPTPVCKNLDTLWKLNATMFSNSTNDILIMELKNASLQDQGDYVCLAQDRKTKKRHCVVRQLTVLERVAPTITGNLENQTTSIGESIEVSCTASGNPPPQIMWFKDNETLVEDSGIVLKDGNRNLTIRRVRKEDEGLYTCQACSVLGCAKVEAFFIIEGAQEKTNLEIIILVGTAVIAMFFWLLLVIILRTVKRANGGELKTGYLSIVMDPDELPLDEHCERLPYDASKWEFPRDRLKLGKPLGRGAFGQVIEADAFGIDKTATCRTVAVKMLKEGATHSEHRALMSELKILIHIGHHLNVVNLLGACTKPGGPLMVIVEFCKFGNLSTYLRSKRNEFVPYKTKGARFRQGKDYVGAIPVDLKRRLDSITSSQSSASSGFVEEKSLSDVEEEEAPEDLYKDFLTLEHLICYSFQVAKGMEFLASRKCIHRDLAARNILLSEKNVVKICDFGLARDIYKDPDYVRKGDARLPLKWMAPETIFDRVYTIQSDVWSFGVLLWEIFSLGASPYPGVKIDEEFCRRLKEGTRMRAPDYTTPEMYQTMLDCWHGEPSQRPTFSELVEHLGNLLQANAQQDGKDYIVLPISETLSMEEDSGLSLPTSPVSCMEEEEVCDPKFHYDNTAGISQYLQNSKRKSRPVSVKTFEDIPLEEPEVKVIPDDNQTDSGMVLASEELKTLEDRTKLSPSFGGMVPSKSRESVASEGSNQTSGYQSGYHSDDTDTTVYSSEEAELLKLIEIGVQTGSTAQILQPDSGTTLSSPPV
Experimental: In our experiments, we used Sorafenib as a positive control drug reference. The activity of compounds was assessed at different concentrations, and the IC50 values were determined.

Row | SMILES | IC50 [1] | IC50 ([2]; Homo sapiens, MDA-MB-231, 48 h) | melting point | also measured
1 | Oc1ccc(/C=N/Nc2nc(-c3ccc(Cl)cc3)cs2)cc1 [Compound 3a, (E)-4-((2-(4-(4-Chlorophenyl)thiazol-2-yl)hydrazineylidene)methyl)-phenol] | 24.9 ± 1.9 µM | 18.7 ± 1.42 µM | – | –
2 | CC(=O)Nc1nc(-c2ccc(Cl)cc2)cs1 [Compound 4, N-(4-(4-Chlorophenyl)-Thiazol-2-yl)Acetamide] | 5.73 ± 0.44 µM | 12.2 ± 0.93 µM | – | IC50 [3]: 36.8 ± 5 µM; cellular population in pre-G1 phase (MCF-7 cells [4]; control 2.12%): 31.66%; cellular population in G2/M phase (MCF-7 cells [4]; control 16.99%): 6.81%; increase of apoptosis at the early stage compared to control cells (MCF-7 cells [5]): 9 times; increase of apoptosis at the late stage compared to control cells (MCF-7 cells [5]): 89 times; increase of necrosis compared to control cells (MCF-7 cells [5]): 9 times; necrosis percentage (MCF-7 cells [5]; control 1.26%): 11.77%
3 | C/C(=N\Nc1nc(-c2ccc(Br)cc2)cs1)c1ccccc1O [Compound 3c, (E)-2-(1-(2-(4-(4-Bromophenyl)thiazol-2-yl)hydrazineylidene)ethyl)-phenol] | 13.7 ± 1.04 µM | 17.1 µM | – | IC50 ([2]; 48 h): 17.08 ± 0.13 µM; IC50 (human VEGFR-2/KDR): 0.253 ± 0.54 µM
4 | COc1cc(C(OC(C)=O)N(/N=C(\C)c2ccc(Br)cc2)c2nc(-c3ccc(Cl)cc3)cs2)ccc1OC(C)=O (stereo not drawn) [Compound 6b, (E)-4-(Acetoxy(2-(1-(4-bromophenyl)ethylidene)-1-(4-(4-chlorophenyl)thiazol-2-yl)hydrazineyl)methyl)-2-methoxyphenyl acetate] | 43.8 ± 2.04 µM | 77 ± 1.95 µM | 126 to 128 °C | –
5 | C/C(=N\Nc1nc(-c2ccc(Cl)cc2)cs1)c1ccc(Br)cc1 [Compound 3b, (E)-2-(2-(1-(4-bromophenyl)ethylidene)hydrazineyl)-4-(4-chlorophenyl)thiazole] | 31.2 ± 2.38 µM | 36.8 ± 2.81 µM | 185 °C | –
6 | C/C(=N\N(c1nc(-c2ccc(Cl)cc2)cs1)C(O)c1ccc(O)cc1)c1ccc(Br)cc1 (stereo not drawn) [Compound 5a, (E)-4-((2-(1-(4-Bromophenyl)ethylidene)-1-(4-(4-chlorophenyl)thiazol-2-yl)hydrazineyl)(hydroxy)methyl)phenol] | 18.6 ± 1.42 µM | 20.7 ± 1.58 µM | 155 to 157 °C | –
7 | COc1cc(C(O)N(/N=C(\C)c2ccc(Br)cc2)c2nc(-c3ccc(Cl)cc3)cs2)ccc1O (stereo not drawn) [Compound 5b, (E)-4-((2-(1-(4-Bromophenyl)ethylidene)-1-(4-(4-chlorophenyl)thiazol-2-yl)hydrazineyl)(hydroxy)methyl)-2-methoxyphenol] | 32.5 ± 2.47 µM | 62.12 ± 0.47 µM | 158 to 160 °C | –
8 | CC(=O)Oc1ccc(C(OC(C)=O)N(/N=C(\C)c2ccc(Br)cc2)c2nc(-c3ccc(Cl)cc3)cs2)cc1 (stereo not drawn) [Compound 6a, (E)-4-(Acetoxy(2-(1-(4-bromophenyl)ethylidene)-1-(4-(4-chlorophenyl)thiazol-2-yl)hydrazineyl)methyl)phenyl acetate] | > 100 µM | > 100 µM | 126 to 128 °C | –
